Assay results from patent publication US12201628B2, “Neuronal modulation” (priority 2013, dated 2025).

Test system: immune cell clusters (CD45+ cells)
Assay: CyTOF mass cytometry of blood and spleen with Citrus analysis
Assay type: in vivo, mice
Conditions: 24 h after CNO, VTA-activated vs control
Description: Two weeks after completion of the behavioral testing, mice were injected intraperitoneally with CNO and anesthetized 24 hours thereafter. Spleens and blood samples were collected. Spleens were dissociated into single-cell suspensions in 2% fetal bovine serum (Biological Industries, IL) and mesh filtered to remove clumps and debris. Blood samples were collected into heparin-coated sterile test tubes. Both the blood and the spleen cell suspensions were lysed with red blood cell lysis buffer (BD Biosciences, NJ, US). Cells ([…]) from each tissue were stained, for 1 hour at room temperature, with a mixture of metal tagged antibodies recognizing CD45, CCR3, CD80, GR1, CD86, CD19, CD4, CD45R, CD152, CD138, CD8, NK1.1, CD27, CD206, CD25, CD14, CD11c, CD49b, CD34, CD69, CD123, TCRβ, CCR7, CD28, CD115, CD133, TLR4, CD117, CD79b, CD62L, CD44, CD45RA, CD1d, IAIE, CD5, and CD11b. All antibodies were conjugated using the MAXPAR reagent (Fluidigm Inc.), with Rhodium and Iridium intercalators used to identify live/dead cells. Cells were washed twice with PBS, fixed in 1.6% formaldehyde (Sigma-Aldrich, St. Louis, MO) for 1 hour, washed again in ultrapure H2O and subjected to CyTOF mass cytometry analysis on a CyTOF I machine, with cell events acquired at approximately 500 events per second. In addition, each sample was spiked with internal metal isotope bead standards, which then was used for sample normalization by CyTOF software (Fluidigm). Acquired data was then uploaded to a Cytobank web server (Cytobank Inc.) for data processing and gating out of dead cells and normalization beads. Data was transformed using an arc sin h (X/5) transformation.
Differences in cell subset abundance and functional marker expression between VTA activated and control mice, were identified using the Citrus algorithm, a clustering and differential detection algorithm especially suited for high dimensional cytometry data (2). Twenty FCS files of normalized, live cell/no beads samples (Five VTA activated mice spleens, five VTA activated mice blood samples, 5 control mice spleen and five control mice blood) were each randomly sampled for 40,000 single cell events each. Briefly, Citrus performs three steps to identify cell subsets and differences between groups: First, collected single cell events are pooled together and iteratively hierarchically clustered using a subset of the measured channels for clustering (See Table 1 for a list of 23 clustering markers), yielding overlapping clusters with the ultimate cluster being one encompassing all sampled events. Second, the pooled dataset is split back into its constituting samples and the relative abundance of cells in each cluster is computed, as well as the median values of each functional marker (see Table 1 for a list of functional markers). Only cell clusters whose total abundance in one or more of the measured samples was greater than 1% of the total measured sample was retained for downstream analysis, yielding a total of 151 clusters. Third, the Citrus implementation of the SAM algorithm was applied, to identify, separately, differences in cell subset abundances and medians between VTA activated and control mouse samples at a predetermined FDR of 5%. Beyond this, an additional criteria for calling differences was employed, by performing a Mann-Whitney non-parametric test of significance on each cluster found to be different between VTA activated and control and requiring that it meet a p-value <0.05 criteria. Manual inspection of Citrus output was used to identify the closest known gross-cell type, matching the 23 combination clustering marker panel. A similar procedure analysis procedure was performed for 6-OHDA samples versus control. […]

C[N+]1([O-])CCN(C2=Nc3cc(Cl)ccc3Nc3ccccc32)CC1 [CNO, clozapine-N-oxide]
abundance of B-cell subsets (blood and spleen): decreased in abundance | CD1d levels on APC subsets (granulocytes, NK cells, monocyte/macrophages) (blood): reduced | CD25, CD69 and CD206 expression (spleen): upregulation | CD80 and CD86 expression (spleen): Upregulation | CD1d expression (spleen): downregulation
